System: mGluR1
Assay: Brain PET at baseline and after mGluR1 blockade, monkey
Type: in vivo, rhesus monkeys (Macaca mulatta)
Experimental: Four male rhesus monkeys (Macaca mulatta, 11.7 ± 2.9 kg) were imaged in 13 PET scans. Seven scans were performed at baseline, three scans were performed after receptor blocking to calculate nondisplaceable uptake (VND), and three scans were performed after blockade of the efflux transporters at the blood–brain barrier. Receptors were blocked by mixing ^11C-LY2428703 with an mGluR1 antagonist - either nonradioactive LY2428703 (2.0 mg/kg) or LY2332084 (0.5 mg/kg) - in the same syringe. Efflux transporters were blocked in two scans by injecting DCPQ, which selectively blocks the efflux transporter ABCB1 (P-gp), and in one scan by injecting elacridar, which blocks both ABCB1 (P-gp) and ABCG2 (BCRP).
PET images were acquired using either the high-resolution research tomograph (HRRT) or the FOCUS 220 scanner (Siemens/CPS, Knoxville, TN, USA) for 120 min in 33 frames, with frame durations ranging from 30 s to 5 min, and correcting for attenuation and scatter. About 2 h before the PET scan, anesthesia was initiated with ketamine (10 mg/kg IM) and then maintained with 1% to 3% isoflurane. Electrocardiograph, body temperature, heart rate, and respiration rate were measured throughout the experiment. At baseline, the injected activity was 210 ± 51 MBq (specific activity at time of injection 43.2 ± 25.6 GBq/μmol, mass dose 6.9 ± 4.7 nmol or 0.62 ± 0.35 nmol/kg). Tissue time-activity curves were obtained from semi-automatic regions of interest encompassing the whole cerebellum and the rest of the brain. Brain uptake was expressed as standardized uptake value (SUV). Arterial input function was obtained for eight scans: four at baseline, two after blocking with nonradioactive LY2428703, one after blocking with DCPQ, and one after blocking with elacridar. Blood samples (0.5 mL each) were drawn through a port connected to the femoral artery at 15-s intervals until 2 min, followed by 1-mL samples at 3, 5, 10, 30, 60, 90, and 120 min. The plasma time-activity curve was corrected for the fraction of unchanged radioligand following the procedure detailed above.
Volumes of distribution (VT) were obtained by nonlinear compartmental analysis. Goodness-of-fit by nonlinear least squares analysis was evaluated using the Akaike Information Criterion (AIC) and Model Selection Criterion (MSC). The most appropriate model is that with the smallest AIC and the largest MSC score. Goodness-of-fit by the compartment models was compared with F statistics. A value of P < 0.05 was considered significant for F statistics. The identifiability of kinetic variables was calculated as standard error obtained from the diagonal of the covariance matrix and expressed as a percentage of the rate constant.

Cc1c(-c2ccc(O[11CH3])cc2)nsc1NC(=O)[C@@H]1C[C@H]1C [^11C-LY2428703]
peak uptake in cerebellum (after mGluR1 blockade): 4.9 ± 0.8 SUV
peak uptake in forebrain (after mGluR1 blockade): 3.6 ± 1.9 SUV
peak uptake in cerebellum (baseline): 3.1 ± 1.4 SUV
peak uptake in cerebellum higher than in forebrain (baseline): about 50%
peak uptake in forebrain (baseline): 2.2 ± 0.8 SUV
time at which cerebellar uptake decreased to 50% of peak (baseline): about 20 min
time of peak uptake in cerebellum (baseline): approximately 2 min
time of peak uptake in forebrain (baseline): approximately 2 min
mean VT (baseline scans, two-tissue compartment model): 3.5 ± 1.0 mL/cm^3
VND (calculated from mGluR1 blocking studies): 4.4 ± 2.9 mL/cm^3
